Values of other authors in PubChem BioAssay AID1259409 (Chemical Carcinogenesis Research Information System (CCRIS), 2018).

Test system: rodent chemically induced tumor inhibition, incidence and multiplicity
Experiment: CCRIS tumor inhibitor studies
Details: Route [Inhibitor]: ORAL, Species: HAMSTER, Promoter: NONE USED

For `CCNC(=O)/C=C(C)/C=C/C=C(C)/C=C/C1=C(C)CCCC1(C)C`, the “tumour outcome (control, treated, inhibition, significance)” value (Carcinogen: N-NITROBIS(2-OXOPROPYL)AMINE, 60559-38-4, Dose [Inhibitor]: 0.5 OR 1.0 MMOL/KG DIET DAILY STARTING 1 WK AFTER CARCINOGEN TREATMENT AND CONTINUING THROUGH THE END OF THE STUDY (STUD, Strain/Sex: SYRIAN/MALE, Target Tissue: Type of Lesion: ND: TOTAL TUMOR, Dose [Carcinogen]: 40 MG/KG BW SINGLE ONCE) is listed as 20/24 (83%), 37/40 (90%), -8%, not significant, the “tumour outcome (control, treated, inhibition, significance)” value (Carcinogen: N-NITROBIS(2-OXOPROPYL)AMINE, 60559-38-4, Dose [Inhibitor]: 0.5 OR 1.0 MMOL/KG DIET DAILY STARTING 1 WK AFTER CARCINOGEN TREATMENT AND CONTINUING THROUGH THE END OF THE STUDY (STUD, Strain/Sex: SYRIAN/MALE, Target Tissue: Type of Lesion: PANCREAS: DUCTULAR ADENOMA, Dose [Carcinogen]: 10 MG/KG BW ONCE) is listed as 3/22 (14%), 16/30 (53%), -279%, p<0.05 and the “tumour outcome (control, treated, inhibition, significance)” value (Carcinogen: N-NITROBIS(2-OXOPROPYL)AMINE, 60559-38-4, Dose [Inhibitor]: 0.5 OR 1.0 MMOL/KG DIET DAILY STARTING 1 WK AFTER CARCINOGEN TREATMENT AND CONTINUING THROUGH THE END OF THE STUDY (STUD, Strain/Sex: SYRIAN/MALE, Target Tissue: Type of Lesion: PANCREAS: DUCTULAR ADENOMA, Dose [Carcinogen]: 40 MG/KG BW ONCE) is listed as 8/24 (33%), 33/40 (82%), -148%, not significant. For the same compound, the “tumour outcome (control, treated, inhibition, significance)” value (Carcinogen: N-NITROBIS(2-OXOPROPYL)AMINE, 60559-38-4, Dose [Inhibitor]: 0.5 OR 1.0 MMOL/KG DIET DAILY STARTING 1 WK AFTER CARCINOGEN TREATMENT AND CONTINUING THROUGH THE END OF THE STUDY (STUD, Strain/Sex: SYRIAN/MALE, Target Tissue: Type of Lesion: PANCREAS: DUCTULAR CARCINOMA, Dose [Carcinogen]: 10 MG/KG BW ONCE) was 4/22 (18%), 10/30 (33%), -83%, not significant, the “tumour outcome (control, treated, inhibition, significance)” value (Carcinogen: N-NITROBIS(2-OXOPROPYL)AMINE, 60559-38-4, Dose [Inhibitor]: 0.5 OR 1.0 MMOL/KG DIET DAILY STARTING 1 WK AFTER CARCINOGEN TREATMENT AND CONTINUING THROUGH THE END OF THE STUDY (STUD, Strain/Sex: SYRIAN/MALE, Target Tissue: Type of Lesion: PANCREAS: DUCTULAR CARCINOMA, Dose [Carcinogen]: 40 MG/KG BW ONCE) was 5/24 (21%), 20/40 (50%), -138%, not significant and the “tumour outcome (control, treated, inhibition, significance)” value (Carcinogen: N-NITROBIS(2-OXOPROPYL)AMINE, 60559-38-4, Dose [Inhibitor]: 0.5 OR 1.0 MMOL/KG IN DIET STARTING 1 WK AFTER CARCINOGEN DOSE FOR DURATION OF STUDY (STUDY DURATION: 40 WK), Strain/Sex: SYRIAN/FEMALE, Target Tissue: Type of Lesion: LIVER: BENIGN TUMOR, Dose [Carcinogen]: 40 MG/KG BW SINGLE INJECTION) was 4/20 (20%), 17/37 (46%), -130%, not significant. For the same compound, the “tumour outcome (control, treated, inhibition, significance)” value (Carcinogen: N-NITROBIS(2-OXOPROPYL)AMINE, 60559-38-4, Dose [Inhibitor]: 0.5 OR 1.0 MMOL/KG IN DIET STARTING 1 WK AFTER CARCINOGEN DOSE FOR DURATION OF STUDY (STUDY DURATION: 40 WK), Strain/Sex: SYRIAN/MALE, Target Tissue: Type of Lesion: LIVER: BENIGN TUMOR, Dose [Carcinogen]: 40 MG/KG BW SINGLE INJECTION) was 5/24 (21%), 25/41 (62%), -195%, p<0.05, the “tumour outcome (control, treated, inhibition, significance)” value (Carcinogen: N-NITROBIS(2-OXOPROPYL)AMINE, 60559-38-4, Dose [Inhibitor]: 0.5 OR 1.0 MMOL/KG/D IN DIET STARTING 1 WK AFTER CARCINOGEN TREATMENT AND CONTINUING THROUGH THE END OF THE STUDY (STUDY, Strain/Sex: SYRIAN/FEMALE, Target Tissue: Type of Lesion: PANCREAS: DUCTULAR ADENOMA, Dose [Carcinogen]: 10 MG/KG BW ONCE) was 5/23 (23%), 13/25 (52%), -126%, not significant and the “tumour outcome (control, treated, inhibition, significance)” value (Carcinogen: N-NITROBIS(2-OXOPROPYL)AMINE, 60559-38-4, Dose [Inhibitor]: 0.5 OR 1.0 MMOL/KG/D IN DIET STARTING 1 WK AFTER CARCINOGEN TREATMENT AND CONTINUING THROUGH THE END OF THE STUDY (STUDY, Strain/Sex: SYRIAN/FEMALE, Target Tissue: Type of Lesion: PANCREAS: DUCTULAR ADENOMA, Dose [Carcinogen]: 40 MG/KG BW ONCE) was 12/20 (60%), 27/37 (73%), -22%, not significant. For the same compound, the “tumour outcome (control, treated, inhibition, significance)” value (Carcinogen: N-NITROBIS(2-OXOPROPYL)AMINE, 60559-38-4, Dose [Inhibitor]: 0.5 OR 1.0 MMOL/KG/D IN DIET STARTING 1 WK AFTER CARCINOGEN TREATMENT AND CONTINUING THROUGH THE END OF THE STUDY (STUDY, Strain/Sex: SYRIAN/FEMALE, Target Tissue: Type of Lesion: PANCREAS: DUCTULAR CARCINOMA, Dose [Carcinogen]: 10 MG/KG BW ONCE) was 6/23 (27%), 6/25 (24%), 11%, not significant, the “tumour outcome (control, treated, inhibition, significance)” value (Carcinogen: N-NITROBIS(2-OXOPROPYL)AMINE, 60559-38-4, Dose [Inhibitor]: 0.5 OR 1.0 MMOL/KG/D IN DIET STARTING 1 WK AFTER CARCINOGEN TREATMENT AND CONTINUING THROUGH THE END OF THE STUDY (STUDY, Strain/Sex: SYRIAN/MALE, Target Tissue: Type of Lesion: PANCREAS: DUCTULAR ADENOMA, Dose [Carcinogen]: 10 MG/KG BW ONCE) was 3/22 (14%), 16/30 (53%), -279%, p<0.05 and the “tumour outcome (control, treated, inhibition, significance)” value (Carcinogen: N-NITROBIS(2-OXOPROPYL)AMINE, 60559-38-4, Dose [Inhibitor]: 0.5 OR 1.0 MMOL/KG/D IN DIET STARTING 1 WK AFTER CARCINOGEN TREATMENT AND CONTINUING THROUGH THE END OF THE STUDY (STUDY, Strain/Sex: SYRIAN/MALE, Target Tissue: Type of Lesion: PANCREAS: DUCTULAR ADENOMA, Dose [Carcinogen]: 40 MG/KG BW ONCE) was 8/24 (33%), 33/40 (82%), -148%, not significant. The “tumour outcome (control, treated, inhibition, significance)” value (Carcinogen: N-NITROBIS(2-OXOPROPYL)AMINE, 60559-38-4, Dose [Inhibitor]: 0.5 OR 1.0 MMOL/KG/D IN DIET STARTING 1 WK AFTER CARCINOGEN TREATMENT AND CONTINUING THROUGH THE END OF THE STUDY (STUDY, Strain/Sex: SYRIAN/MALE, Target Tissue: Type of Lesion: PANCREAS: DUCTULAR CARCINOMA, Dose [Carcinogen]: 10 MG/KG BW ONCE) was 4/22 (18%), 10/30 (33%), -83%, not significant, the “tumour outcome (control, treated, inhibition, significance)” value (Carcinogen: N-NITROBIS(2-OXOPROPYL)AMINE, 60559-38-4, Dose [Inhibitor]: 0.5 OR 1.0 MMOL/KG/D IN DIET STARTING 1 WK AFTER CARCINOGEN TREATMENT AND CONTINUING THROUGH THE END OF THE STUDY (STUDY, Strain/Sex: SYRIAN/MALE, Target Tissue: Type of Lesion: PANCREAS: DUCTULAR CARCINOMA, Dose [Carcinogen]: 40 MG/KG BW ONCE) was 5/24 (21%), 20/40 (50%), -138%, not significant and the “tumour outcome (control, treated, inhibition, significance)” value (Carcinogen: N-NITROBIS(2-OXOPROPYL)AMINE, 60599-38-4, Dose [Inhibitor]: 0.5 OR 1 MMOL/KG DIET DAILY STARTING 1 WK AFTER CARCINOGEN TREATMENT AND CONTINUING THROUGH THE END OF THE STUDY (STUDY, Strain/Sex: SYRIAN/FEMALE, Target Tissue: Type of Lesion: PANCREAS: DUCTULAR CARCINOMA, Dose [Carcinogen]: 40 MG/KG BW ONCE) was 6/20 (30%), 16/37 (43%), -43%, not significant. For the same compound, the “tumour outcome (control, treated, inhibition, significance)” value (Carcinogen: N-NITROBIS(2-OXOPROPYL)AMINE, 60599-38-4, Dose [Inhibitor]: 0.5 OR 1.0 MMOL/KG/D IN DIET STARTING 1 WK AFTER CARCINOGEN TREATMENT AND CONTINUING THROUGH THE END OF THE STUDY (STUDY, Strain/Sex: SYRIAN/FEMALE, Target Tissue: Type of Lesion: PANCREAS: DUCTULAR CARCINOMA, Dose [Carcinogen]: 40 MG/KG BW ONCE) was 6/20 (30%), 16/37 (43%), -43%, not significant and the “tumour outcome (control, treated, inhibition, significance)” value (Carcinogen: N-NITROSOBIS(2-OXYPROPYL)AMINE, 60599-38-4, Dose [Inhibitor]: 0.05, 0.1 OR 0.2 MILLIMOLAR/KG DIET FOR 32 WK STARTING 1 WK AFTER THE CARCINOGEN DOSE (STUDY DURATION: 33 WK), Strain/Sex: SYRIAN/FEMALE, Target Tissue: Type of Lesion: COMMON DUCT: ADENOMA, Dose [Carcinogen]: 40 MG/KG ONCE) was 4/10 (40%), 7/26 (32%), 20%, not significant.
